Legend:
[1] = Oxipres antioxidant efficacy value (EV) in fish meal; conditions: Oxipres 70° C., 5 bar O2, equimolar to BHT; EV relative to BHT (EV=1)
Description: Oxidative stability was assessed using an Oxipres (Mikrolab Aarhus A/S, Hojbjerg, Denmark). The ML OXIPRES® is designed to monitor the oxidation of heterogeneous products. Consumption of oxygen results in a pressure drop which is measured by means of pressure transducers. The samples are heated to accelerate the process and shorten the analysis time (Mikrolab Aarhus 2012).
Sample weights were 50 g. They were loaded into the Oxipres vessels and placed inside the stainless-steel pressure vessel and sealed. The pressure vessels were purged with pure oxygen and filled to an initial oxygen pressure of 5 bar and maintained at 70° C. during measurement (D. Ying, L. Edin, L. Cheng, L. Sanguansri, M. A. Augustin, LWT—Food Science and Technology 2015, 62, 1105-1111: “Enhanced oxidative stability of extruded product containing polyunsaturated oils.”).
The oxygen pressure was recorded as function of time. After sample load and temperature rise the pressure in the device is increasing within 10 hours up to the starting pressure. Thereafter it is decreasing. Consequently, the starting pressure is considered as being the pressure after 10 hours. The analysis ends after 130 hours at 70° C. The oxygen consumption ‘O2’ of the tested sample is calculated as follows: […]
A factor of protection called ‘EV’ (Efficacy Value) was developed to quantify with a relative number (relative to BHT) the antioxidant effect of the tested candidates. EV was calculated as follows:
EV, being relative to BHT (3,5-di-tert-butyl-4-hydroxy-toluene) (EV=1), makes it possible to compare the antioxidant compounds in a defined feed application.
Each of the compounds of formulae (1) to (6) were mixed into each matrix 1, 2 or 3 (pet food, poultry meal, fish meal) in an equimolar ratio compared to BHT. Batches of 200 g feed were produced in order to handle a minimum of 30 mg of antioxidant. First, a 1% pre-dilution of the antioxidant with the feed material was made. Then this pre-dilution was added to the final batch, mixed, sieved (1.25 mm sieve) and mixed using a turbula mixer. Thereafter 55 g of the final batch were packed into polyethylene bags, and stored at 4° C. until start of the Oxipres assay. Spare sample were stored at 4° C. Compound of formula (3) was measured in all three matrices. Compound of formula (1) was measured in matrix 1 and 2. Compound of formula (2) was measured in matrix 2. Compounds of formulae (4), (5) and (6) were measured in matrix 3. An efficacy value 0.7 has been considered as acceptable, an efficacy value ≥ the efficacy value of alpha-tocopherol as good, and an efficacy value ≥ the efficacy value of BHT as very good.

[2] = Polymers generated at end of OSI experiment in fish oil, by LC; conditions: FG30TG oil, end of stabilization experiment
Description: The compounds of formulae (6) and (9) (see Table 14 below), compound of formula (4) (see Table 15 below) and compound of formula (8) (see Table 16 below) were used at different times in the Oxidative Stability instruments under similar operational conditions used for fish oil evaluations. MNT and the oil without any antioxidants (“Blank”) were always used to compare. Also, the synergistic effect of only oil soluble compounds with ascorbyl palmitate was determined using the OSI values. The polymers generated at the end of the experiment were determined by LC (LC=liquid chromatography). Polymers generated at the end of the stabilization experiment of fish oil with compounds of formulae 6 and 9 and AP are shown in Table 24. A combination of complex, polymeric compounds generated at the end of the oxidation cascade of unsaturated fatty acids indicate the levels of overall oxidation of the matrix. The generation of such polymers in fish oil containing these novel antioxidant compounds could be reduced considerably when AP was added as a synergistic compound (Table 24).

[3] = Oil Stability Index (OSI) in fish oil, Example 12; conditions: for OSI / Protection Factor (%): FG30TG fish oil; for antioxidant effect (OSI) in fish oil compared with MNT: Example 12, same level of MNT
Description: (§1) The compounds of formulae (4), (6), (8) and (9) were evaluated primarily for their oxidative stability by the Oil Stability Index (OSI) measurements. Two different levels of these antioxidants (0.5 and 2 mg/g) were used in 5 g of natural fish oil (Product code: FG30TG) and used in the Oxidative Stability Instrument at 80° C. with the air flow rate of 40 psi. The solubility of different amounts and types of antioxidants used in OSI was checked before and after the application.
The compounds of formulae (6) and (9) (see Table 14 below), compound of formula (4) (see Table 15 below) and compound of formula (8) (see Table 16 below) were used at different times in the Oxidative Stability instruments under similar operational conditions used for fish oil evaluations. MNT and the oil without any antioxidants (“Blank”) were always used to compare. Also, the synergistic effect of only oil soluble compounds with ascorbyl palmitate was determined using the OSI values. The polymers generated at the end of the experiment were determined by LC (LC=liquid chromatography).
The Protection Factors (PF) for each compound in oil were calculated in percentage as: […]

[4] = Oil Stability Index in crude algal oil, Example 12; conditions: for prooxidant effect in algal oil: higher levels (2 mg/g)
Text: To evaluate the efficacy of the compounds of formulae (4), (6), (8) and (9) in algal oils, only oil soluble compounds were used. […] Protection Factors of all these compounds, including MNT, in fish oil could be improved by the addition of AP (Tables 22-23) indicating the possibility of combining AP to all these novel compounds to improve the oxidative stability of matrices containing high amounts of unsaturated fatty acids such as fish oil.

[5] = Solubility in fish oil; type: physicochemical
Description: as §1, with “application. […]” for “application.”

[6] = Storage stability in fish oil (PV, p-AV, CD), Example 12; conditions: FG30TG, 2 mg/g
Description: Tables 25, 26 and 27 show the PV (peroxide value), p-AV (p-anisidine value) and CD (Conjugated dienoic acid %) of the fish oil samples stabilized with compounds of formulae (6), (8) and (9), respectively.
For the storage stability study oil soluble compounds were used in fish oil at 2 mg/g level only. […] There was no considerable variation in p-AV and CD (Tables 26-27) during the storage.

[7] = Table 20, 2 mg/g + 0.5 mg/g of AP (ascorbyl palmitate)
[8] = Table 22, 2 mg/g + 0.5 mg/g of AP

Solubility in fish oil, 80° C. ([5]; 0.5 mg/g)	Solubility in fish oil, Room temp. ([5]; 0.5 mg/g)	Solubility in fish oil, 80° C. ([5]; 2.0 mg/g)	Solubility in fish oil, Room temp. ([5]; 2.0 mg/g)	Compound	Polymers (%) ([2]; 2 mg/g + 0.5 mg/g of AP)	Polymers (%) ([2]; 2 mg/g, without AP)	OSI ([3]; Table 14, 80° C., 0.5 mg/g) [h]	OSI ([3]; Table 14, 80° C., 2 mg/g) [h]	Protection Factor (%) ([3]; Table 17, 0.5 mg/g)	Protection Factor (%) ([3]; Table 17, 2 mg/g)	OSI [3, 7] [h]	OSI ([3]; Table 20, 2 mg/g, without AP) [h]	Protection Factor (%) [3, 8] [%]	Protection Factor (%) ([3]; Table 22, 2 mg/g, without AP)	antioxidant effect (OSI) in fish oil compared with MNT [3]	OSI values in algal oil compared with MNT [4]	prooxidant effect in algal oil [4]	CD (conjugated dienoic acid in %) ([6]; 4 days) [%]	PV (peroxide value) ([6]; 4 days)	p-AV (p-anisidine value) ([6]; 4 days)	other results
Soluble	Soluble	Soluble	Soluble	Cc1c(C)c2c(c(C)c1O)CCC(C)(CO)O2 (centres unmarked) [Compound of formula (6), 2-Hydroxymethyl-2,5,7,8-Tetramethyl-6-Chromanol]	25.09	37.37	7.05	7.30	54.95	60.44	11.20	6.15	141.9	32.8	comparable to the effect of MNT	clearly lower OSI values than those of MNT	possible prooxidant effect	0.7	4.1	10.4	EV in Fish meal [1]: 1.03; CD (conjugated dienoic acid in %) ([6]; 6 days): 0.7%; PV (peroxide value) ([6]; 6 days): 7; p-AV (p-anisidine value) ([6]; 6 days): 9.7; CD (conjugated dienoic acid in %) ([6]; 8 days): 0.7%; PV (peroxide value) ([6]; 8 days): 7.9; p-AV (p-anisidine value) ([6]; 8 days): 10.2; CD (conjugated dienoic acid in %) ([6]; 11 days): 0.8%; PV (peroxide value) ([6]; 11 days): 10.2; p-AV (p-anisidine value) ([6]; 11 days): 10.4; CD (conjugated dienoic acid in %) ([6]; 13 days): 0.8%; PV (peroxide value) ([6]; 13 days): 14.9; p-AV (p-anisidine value) ([6]; 13 days): 10.3; CD (conjugated dienoic acid in %) ([6]; 15 days): 0.8%; PV (peroxide value) ([6]; 17 days): 18.6; p-AV (p-anisidine value) ([6]; 17 days): 10.7; CD (conjugated dienoic acid in %) ([6]; Initial): 0.7%; PV (peroxide value) ([6]; Initial): 0.9; p-AV (p-anisidine value) ([6]; Initial): 9.9
Soluble	Soluble	Soluble	Soluble	Cc1c(C)c2c(c(C)c1O)CCC(C)(CCCC(C)C)O2 (centres unmarked) [Compound of formula (9)]	31.06	40.34	5.75	6.05	26.37	32.97	8.93	6.30	92.8	36.1	comparable to the antioxidative effect of MNT	clearly lower OSI values than those of MNT	possible prooxidant effect	0.7	2.9	10.5	CD (conjugated dienoic acid in %) ([6]; 6 days): 0.7%; PV (peroxide value) ([6]; 6 days): 7.3; p-AV (p-anisidine value) ([6]; 6 days): 9.9; CD (conjugated dienoic acid in %) ([6]; 8 days): 0.8%; PV (peroxide value) ([6]; 8 days): 8.8; p-AV (p-anisidine value) ([6]; 8 days): 10.3; CD (conjugated dienoic acid in %) ([6]; 11 days): 0.9%; PV (peroxide value) ([6]; 11 days): 11.2; p-AV (p-anisidine value) ([6]; 11 days): 10.5; CD (conjugated dienoic acid in %) ([6]; 13 days): 0.8%; PV (peroxide value) ([6]; 13 days): 15; p-AV (p-anisidine value) ([6]; 13 days): 10.5; CD (conjugated dienoic acid in %) ([6]; 15 days): 0.8%; PV (peroxide value) ([6]; 17 days): 19.2; p-AV (p-anisidine value) ([6]; 17 days): 11; CD (conjugated dienoic acid in %) ([6]; Initial): 0.7%; PV (peroxide value) ([6]; Initial): 0.9; p-AV (p-anisidine value) ([6]; Initial): 9.9
